Literature values as cited in US20240423900A1, “ANHYDROUS BARRIER AND ANTIOXIDANT COMPOSITIONS” (Baek Clinical Inc., priority 2023, published 2024).

Tests used:
[1] = general statement, no test described
human skin = settings: general statement, no test described

CC(C)CCCC(C)CCCC(C)CCCCC(C)CCCC(C)CCCC(C)C (centres unmarked) [Squalane, squalane]
acute toxicity [1]: low acute toxicity | human skin irritant or sensitizer (human skin): not a significant human skin irritant or sensitizer
